From ChEMBL document CHEMBL1201862, “PubChem BioAssay data set” (2004)
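Grown in 96-well plates, cells were treated for 48 hours with each compound at five concentrations. Insufficient inhibition: endpoint recorded as highest concentration tested. At the GI50, growth is halved.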 The source made the active and inactive calls. No stated cut-off is given here; in the data, active = GI50 up to about 1.1 µM and inactive = higher.

Experiments:
Test in all cases: NCI tumour cell line growth inhibition, 48 h
[1] = test system: A549
[2] = test system: CCRF-CEM
[3] = test system: HL-60
[4] = test system: SN12C
[5] = test system: SW-620
[6] = test system: UO-31
[7] = test system: SF-539
[8] = test system: IGROV-1
[9] = test system: TK-10
[10] = test system: NCI-H23
[11] = test system: KM12
[12] = test system: BT-549
[13] = test system: A498
[14] = test system: EKVX
[15] = test system: NCI-H226
[16] = test system: SK-MEL-28
[17] = test system: NCI-H460
[18] = test system: COLO 205
[19] = test system: SNB-19
[20] = test system: MDA-N
[21] = test system: HCT-116
[22] = test system: PC-3
[23] = test system: K562
[24] = test system: UACC-62
[25] = test system: Hs-578T
[26] = test system: MDA-MB-435
[27] = test system: M14
[28] = test system: DU-145
[29] = test system: MOLT-4
[30] = test system: T47D
[31] = test system: ACHN
[32] = test system: 786-0
[33] = test system: HOP-92
[34] = test system: U-251
[35] = test system: Malme-3M
[36] = test system: SK-OV-3
[37] = test system: LOX IMVI
[38] = test system: UACC-257
[39] = test system: SK-MEL-5
[40] = test system: HOP-62
[41] = test system: HCT-15
[42] = test system: SF-268
[43] = test system: OVCAR-4
[44] = test system: RXF 393
[45] = test system: HT-29
[46] = test system: OVCAR-3
[47] = test system: MCF7
[48] = test system: RPMI-8226
[49] = test system: OVCAR-5
[50] = test system: SK-MEL-2
[51] = test system: NCI/ADR-RES
[52] = test system: MDA-MB-231
[53] = test system: OVCAR-8
[54] = test system: SF-295
[55] = test system: CAKI-1
[56] = test system: HCC 2998
[57] = test system: SNB-75
[58] = test system: NCI-H522

Measured: GI50

CCNc1nc(N)c(C(=O)c2ccc(Cl)cc2)s1
inactive: [1] 20.7 µM | [2] 5.75 µM | [3] 13.6 µM | [4] 49.7 µM | [5] 31.2 µM | [6] 15 µM | [7] 33 µM | [8] 25.1 µM | [9] 14.3 µM | [10] 45.6 µM | [11] 30.3 µM | [12] 40.3 µM | [13] 20.8 µM | [14] 4.52 µM | [15] 22.3 µM | [16] 76.6 µM | [17] 18.8 µM | [18] 18.9 µM | [19] 18.9 µM | [20] 41.8 µM | [21] 27.9 µM | [22] 39.9 µM | [23] 29.3 µM | [24] 45.5 µM | [25] 4.86 µM | [26] 32.2 µM | [27] 44.6 µM | [28] 32.7 µM | [29] 27.4 µM | [30] 33 µM | [31] 23.7 µM | [32] 39.9 µM | [33] > 100 µM | [34] 36.7 µM | [35] > 100 µM | [36] 29.9 µM | [37] 40.1 µM | [38] 71 µM | [39] 27.7 µM | [40] 44.2 µM | [42] 30.7 µM | [43] 36.3 µM | [44] 22 µM | [45] 27 µM | [46] 19.9 µM | [47] 28.6 µM | [48] 30.3 µM | [49] 32.7 µM | [50] 41.7 µM | [51] 42.1 µM | [52] > 100 µM
26.9 µM: [41]

CCCCCC(=O)OCC1(CO)C/C(=C/CC(C(C)C)C(C)C)C(=O)O1 (centres undefined)
inactive: [1] 51.1 µM | [2] 16.1 µM | [4] 30.5 µM | [5] 25.2 µM | [6] 17.2 µM | [8] 17.8 µM | [9] > 75 µM | [53] 21.9 µM | [10] > 75 µM | [11] 13.5 µM | [12] > 75 µM | [13] > 75 µM | [14] > 75 µM | [54] 51.1 µM | [15] > 75 µM | [16] > 75 µM | [55] 19.9 µM | [56] 59.7 µM | [17] 24.8 µM | [18] 26.5 µM | [19] 63.1 µM | [20] 34 µM | [57] 74 µM | [21] 27.7 µM | [58] 13.7 µM | [22] 63.5 µM | [24] > 75 µM | [25] 33.3 µM | [26] 21.8 µM | [28] 59.6 µM | [30] 52.6 µM | [31] 58.5 µM | [32] 30.8 µM | [33] 27 µM | [34] 44.4 µM | [35] 24.3 µM | [36] > 75 µM | [37] 10.6 µM | [38] > 75 µM | [39] 48.8 µM | [40] 38.7 µM | [42] > 75 µM | [43] 53.2 µM | [44] > 75 µM | [45] 38.6 µM | [46] 50 µM | [47] 40.9 µM | [49] > 75 µM | [50] > 75 µM | [51] > 75 µM | [52] > 75 µM
73.1 µM: [41]
